Results from PubChem BioAssay (NCI).
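Briefly, cells in 96-well plates were exposed to five compound concentrations for 48 h, and endpoints were estimated by linear interpolation. The concentration for 50% growth inhibition is given as GI50. Definition used: TGI = concentration required for complete inhibition of growth.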

Legend:
Test in all cases: growth of human tumour cells (NCI), 48 h
MDA-MB-435 = system: MDA-MB-435
SK-MEL-28 melanoma = system: SK-MEL-28 melanoma
NCI-H226 lung = system: NCI-H226 lung
SF-539 CNS = system: SF-539 CNS
MDA-MB-231 breast = system: MDA-MB-231 breast
NCI-H23 lung = system: NCI-H23 lung
HOP-92 NSCLC = system: HOP-92 NSCLC
U251 CNS = system: U251 CNS
PC-3 prostate = system: PC-3 prostate
SR leukemia = system: SR leukemia

Row | SMILES | TGI (MDA-MB-435) [µM] | TGI (SK-MEL-28 melanoma) [µM] | TGI (NCI-H226 lung) [µM] | TGI (SF-539 CNS) [µM] | TGI (MDA-MB-231 breast) [µM] | TGI (NCI-H23 lung) [µM] | TGI (HOP-92 NSCLC) [µM] | TGI (U251 CNS) [µM] | TGI (PC-3 prostate) [µM] | TGI (SR leukemia) [µM] | GI50 (MDA-MB-435) [µM] | GI50 (SK-MEL-28 melanoma) [µM] | GI50 (NCI-H226 lung) [µM] | GI50 (SF-539 CNS) [µM] | GI50 (MDA-MB-231 breast) [µM] | GI50 (NCI-H23 lung) [µM] | GI50 (HOP-92 NSCLC) [µM] | GI50 (U251 CNS) [µM] | GI50 (PC-3 prostate) [µM] | GI50 (SR leukemia) [µM]
1 | O=S1(=O)c2ccccc2N(c2ccccc2)c2nnnn21 | > 100 | 92.9 | > 100 | 35.7 | 72.4 | 59.6 | 88.7 | > 100 | > 100 | – | – | – | – | – | – | – | – | – | – | –
2 | CCC12C=CCN(CCc3c([nH]c4ccccc34)/C=C\1)C2 (centres undefined) | – | – | > 100 | > 100 | – | > 100 | – | > 100 | – | > 100 | – | – | – | – | – | – | – | – | – | –
3 | CCN(CC)CCNC(=O)c1cccc2c1-c1ccccc1C2=O | > 100 | > 100 | > 100 | > 100 | > 100 | > 100 | > 100 | > 100 | > 100 | – | > 100 | > 100 | > 100 | 95.1 | > 100 | > 100 | > 100 | > 100 | > 100 | –
4 | N#Cc1c2ccccc2c(Cc2ccc3c(c2)OCCOCCOCCOCCOCCO3)c2ccccc12 | – | 19.4 | 24.3 | 29.7 | – | 25.3 | 12.2 | 26.2 | – | > 100 | – | – | – | – | – | – | – | – | – | –
5 | COC(=O)C1=CC2C(=O)OC1C1C(=O)NC(=O)C21 (centres undefined) | – | > 100 | – | > 100 | – | > 100 | > 100 | > 100 | – | > 100 | – | – | – | – | – | – | – | – | – | –
6 | C=C1C(=O)O[C@H](c2ccoc2)C[C@@H]1[C@@]1(C)CCCC2(C)C(=O)OCC21 (some centres undefined) | – | > 100 | > 100 | > 100 | – | > 100 | – | > 100 | – | – | – | – | – | – | – | – | – | – | – | –
7 | CCOC(=O)C1=C(C)NC(=O)NC1c1ccc(OC)cc1OC (centres undefined) | – | – | > 100 | – | – | > 100 | > 100 | > 100 | – | > 100 | – | – | – | – | – | – | – | – | – | –
8 | Nc1cccc2c1-c1c(cccc1[N+](=O)[O-])C2=O | – | – | > 100 | > 100 | – | > 100 | > 100 | > 100 | – | > 100 | – | – | – | – | – | – | – | – | – | –
9 | CCOC(=O)c1cc(=O)n(C)c(=O)n1C | – | > 100 | > 100 | > 100 | – | > 100 | > 100 | > 100 | – | – | – | – | – | – | – | – | – | – | – | –
10 | N#C/C(=C\c1c(O)cc(O)cc1O)C(N)=O | – | > 100 | > 100 | > 100 | – | > 100 | > 100 | > 100 | – | – | – | – | – | – | – | – | – | – | – | –
11 | COc1ccc(Cn2cc(COc3cc(/C=C/C(=O)c4cc(OC)c(OC)c(OC)c4)ccc3OC)nn2)cc1 | > 100 | > 100 | 83.1 | 12.9 | > 100 | > 100 | – | > 100 | > 100 | > 100 | 2.86 | 7.45 | 2.91 | 3.02 | 4.62 | 31.3 | – | 3.8 | 3.63 | 2.7
12 | O=C(/C=C/c1ccc(Cl)c(Cl)c1)c1ccccc1Cl | – | 22.5 | 31.6 | 12.2 | – | 26.9 | 31.7 | 10.3 | – | 36.7 | – | – | – | – | – | – | – | – | – | –
13 | Cn1[nH]cc2ccc3nc4ccccc4c(=O)c3c21 | – | > 88.5 | 45.5 | – | – | 53.4 | > 83 | 30.7 | – | > 100 | – | – | – | – | – | – | – | – | – | –
